Here are results for ten compounds from patent publication US6946547B2, “Ecstasy-class analogs and use of same in detection of ecstasy-class compounds” (Microgenics Corporation, priority 2000, dated 2005).

Marks after values point to notes of the source that are not given here.

For one experiment, the system named is Antibody 1A9. In words: CEDIA ecstasy-class assay on a Hitachi clinical chemistry analyzer. It counts as binding, mouse. As to conditions: for detection in the CEDIA ecstasy-class MDMA assay: in words. The protocol:
Antibodies obtained using any of the aforementioned techniques are screened or purified not only for their ability to react with an ecstasy-class compound, but also for a low cross-reactivity with potential interfering substances. “Cross reactivity” is determined in a quantitative immunoassay by establishing a standard curve using known dilutions of the target analyte, e.g., MDMA. […] The cross-reactivity is the apparent concentration divided by the actual concentration multiplied by 100. […] Alternatively, the cross-reactivity can be determined in the same type of immunoassay in which the antibody will ultimately be used.
• a. Preparation of Reagents:
Enzyme Donor (ED) Reagent was prepared as a liquid reagent with the components below:
Assay Protocol: The assay was performed on a Hitachi clinical chemistry analyzer as follows: Sample was pipetted into a reaction cuvette. EA reagent, containing antibody, was added. The mixture was incubated at 37° C. for approximately 5 minutes. ED reagent containing […] was subsequently added, and the incubation continued for 4 minutes at 37° C. The rate of substrate hydrolysis was measured photometrically at 570 nm (with subtraction of background at 660 nm) from four to five minutes after ED addition.

Experiment [1] is described as follows: Standard CEDIA DAU Amphetamines assay, Hitachi 911. As to conditions: methamphetamine = 100.
In experiment [2] the test system is 1A9 anti-ecstasy antibody. In words: Enhanced CEDIA DAU Amphetamines assay (1A9 antibody and ED28-(MB-MDA)2 added). To be noted: methamphetamine = 100.
Where [3] appears, read: Antibody 1A9, Experiment 2, concentration 1,000,000 ng/mL.
Setting [4] is: Antibody 1A9, Experiment 2, concentration 600,000 ng/mL.
Setting [5] is: Antibody 1A9, Experiment 1, concentration 300 ng/mL.
[6] abbreviates: Antibody 1A9, Experiment 1, concentration 1000 ng/mL.
Where [7] appears, read: antibody 1A9, summary of detected ecstasy-class compounds.
Where [8] appears, read: Antibody 1A9, Experiment 1, concentration 5000 ng/mL.

As for (±)ephedrine, the Cross-Reactivity in the experiment on Antibody 1A9 (setting [3]) came to 0.0047%.
Take `CN[C@@H](C)[C@@H](O)c1ccccc1` [pseudoephedrine]: in the experiment on Antibody 1A9 (setting [4]), the Cross-Reactivity is 0.0017%.
As to `CN[C@@H](C)Cc1ccccc1` [Methamphetamine], the Cross-Reactivity with Antibody 1A9 (setting [4]) is 0.056%. Also, the “detection in the CEDIA ecstasy-class MDMA assay” value in the experiment with Antibody 1A9 (antibody 1A9) was “detected neither”. The “Cross-reactivity, Standard CEDIA Amphetamines” value in experiment [1] (concentration 300 ng/ml) and in experiment [1] (concentration 500 ng/ml) was 100 each time. Also, the “Cross-reactivity, Enhanced CEDIA Amphetamines” value in experiment [2] (concentration 300 ng/ml) and in experiment [2] (concentration 500 ng/ml) was 100 in each case.
`CCNC(C)Cc1ccc2c(c1)OCO2` (centres unmarked) [MDEA, N-ethyl-3,4-methylenedioxyamphetamine]: the Cross-Reactivity is reported as 155* % in the experiment with Antibody 1A9 (setting [5]), 484% in the experiment with Antibody 1A9 (setting [6]) and 155% with Antibody 1A9 (setting [7]). The figures for the “Cross-reactivity, Standard CEDIA Amphetamines” value in experiment [1] (concentration 300 ng/ml) and in experiment [1] (concentration 500 ng/ml) were 22 and 21, respectively. For the same compound, the “Cross-reactivity, Enhanced CEDIA Amphetamines” value in experiment [2] (concentration 300 ng/ml) stood at 153.
As to `CCC(Cc1ccc2c(c1)OCO2)NC` (centres unmarked) [MBDB, N-methyl-1-(3,4-methylenedioxyphenyl)-2-butanamine], the Cross-Reactivity in the experiment on Antibody 1A9 (setting [5]) was 23%; in the experiment with Antibody 1A9 (setting [6]), 29* %; in the experiment with Antibody 1A9 (setting [8]) it was 18%; in the experiment with Antibody 1A9 (setting [7]), 23%. The “Cross-reactivity, Standard CEDIA Amphetamines” value in experiment [1] (concentration 300 ng/ml) was found to be 64; in experiment [1] (concentration 500 ng/ml), 73. For the same compound, the “Cross-reactivity, Enhanced CEDIA Amphetamines” value amounted to 80 in experiment [2] (concentration 300 ng/ml) and 97 in experiment [2] (concentration 500 ng/ml).
As to `CC(N)Cc1ccc2c(c1)OCO2` (centres unmarked) [MDA, 3,4-methylenedioxyamphetamine], the Cross-Reactivity with Antibody 1A9 (setting [5]) is 55%; in the experiment on Antibody 1A9 (setting [6]), 68* %; in the experiment with Antibody 1A9 (setting [8]), 63%; in the experiment with Antibody 1A9 (setting [7]), 55%. The “Cross-reactivity, Standard CEDIA Amphetamines” value in experiment [1] (concentration 300 ng/ml) is reported as 5; in experiment [1] (concentration 500 ng/ml), 4. Also, the results for the “Cross-reactivity, Enhanced CEDIA Amphetamines” value in experiment [2] (concentration 300 ng/ml) and in experiment [2] (concentration 500 ng/ml) were 81 and 91, respectively.
In the case of `CNC(C)Cc1ccc2c(c1)OCO2` (centres unmarked) [MDMA, 3,4-methylenedioxymethamphetamine], in the experiment with Antibody 1A9 (setting [7]), the Cross-Reactivity is recorded as 100%. For the same compound, the “Cross-reactivity, Standard CEDIA Amphetamines” value in experiment [1] (concentration 300 ng/ml) worked out at 49; in experiment [1] (concentration 500 ng/ml), 50. Besides, in experiment [2] (concentration 300 ng/ml), the “Cross-reactivity, Enhanced CEDIA Amphetamines” value turned out to be 129.
In the case of `CC(N)C(O)c1ccccc1` (centres unmarked) [phenylpropanolamine], the Cross-Reactivity with Antibody 1A9 (setting [3]) is 0.0041%.
Consider `CCC(N)Cc1ccc2c(c1)OCO2` (centres unmarked) [BDB, 1-(3,4-methylenedioxyphenyl)-2-butanamine], for which the Cross-Reactivity in the experiment on Antibody 1A9 (setting [5]) is given as 33%; with Antibody 1A9 (setting [6]), 50* %; in the experiment on Antibody 1A9 (setting [8]), 30%; in the experiment on Antibody 1A9 (setting [7]) it was 33%. Also, the “Cross-reactivity, Standard CEDIA Amphetamines” value was determined as 5 in experiment [1] (concentration 300 ng/ml) and 7 in experiment [1] (concentration 500 ng/ml). The “Cross-reactivity, Enhanced CEDIA Amphetamines” value in experiment [2] (concentration 300 ng/ml) is 105; in experiment [2] (concentration 500 ng/ml), 125.
Turning to `CNC(C)Cc1ccc(O)c(OC)c1` (centres unmarked) [HMMA, 4-hydroxy-3-methoxymethamphetamine], the Cross-Reactivity in the experiment with Antibody 1A9 (setting [5]), with Antibody 1A9 (setting [6]) and in the experiment with Antibody 1A9 (setting [8]) was less than 0.1% in each case. Moreover, the “detection in the CEDIA ecstasy-class MDMA assay” value in the experiment on Antibody 1A9 (antibody 1A9) is given as “detected neither”.
